Experiments:
[1] = target: Protein kinase C eta type (Homo sapiens) (UniProt P24723); assay: Inhibition of PRKCH (unknown origin) assessed as residual activity at 100 nM by KINOMEscan analysis relative to control
[2] = target: Ephrin type-A receptor 4 (Homo sapiens) (UniProt P54764); assay: Inhibition of EPHA4 (unknown origin) assessed as residual activity at 100 nM by KINOMEscan analysis relative to control
Homo sapiens = organism: Homo sapiens; assay: Inhibition of N-terminal GST-tagged recombinant human SOS1 S876K mutant (564 to 1049 residues) expressed in Escherichia coli assessed as reduction in KRAS G12C mutant activation at 10 uM by HTRF analysis relative to control
[3] = system: Leucine-rich repeat serine/threonine-protein kinase 2 (Homo sapiens), Q5S007 [G2019S]; assay: Inhibition of LRRK2 G2019S mutant (unknown origin) assessed as residual activity at 100 nM by KINOMEscan analysis relative to control
Leucine-rich repeat serine/threonine-protein kinase 2 (Homo sapiens), Q5S007 [G2019S], sequence (Q5S007 whole entry G2019S): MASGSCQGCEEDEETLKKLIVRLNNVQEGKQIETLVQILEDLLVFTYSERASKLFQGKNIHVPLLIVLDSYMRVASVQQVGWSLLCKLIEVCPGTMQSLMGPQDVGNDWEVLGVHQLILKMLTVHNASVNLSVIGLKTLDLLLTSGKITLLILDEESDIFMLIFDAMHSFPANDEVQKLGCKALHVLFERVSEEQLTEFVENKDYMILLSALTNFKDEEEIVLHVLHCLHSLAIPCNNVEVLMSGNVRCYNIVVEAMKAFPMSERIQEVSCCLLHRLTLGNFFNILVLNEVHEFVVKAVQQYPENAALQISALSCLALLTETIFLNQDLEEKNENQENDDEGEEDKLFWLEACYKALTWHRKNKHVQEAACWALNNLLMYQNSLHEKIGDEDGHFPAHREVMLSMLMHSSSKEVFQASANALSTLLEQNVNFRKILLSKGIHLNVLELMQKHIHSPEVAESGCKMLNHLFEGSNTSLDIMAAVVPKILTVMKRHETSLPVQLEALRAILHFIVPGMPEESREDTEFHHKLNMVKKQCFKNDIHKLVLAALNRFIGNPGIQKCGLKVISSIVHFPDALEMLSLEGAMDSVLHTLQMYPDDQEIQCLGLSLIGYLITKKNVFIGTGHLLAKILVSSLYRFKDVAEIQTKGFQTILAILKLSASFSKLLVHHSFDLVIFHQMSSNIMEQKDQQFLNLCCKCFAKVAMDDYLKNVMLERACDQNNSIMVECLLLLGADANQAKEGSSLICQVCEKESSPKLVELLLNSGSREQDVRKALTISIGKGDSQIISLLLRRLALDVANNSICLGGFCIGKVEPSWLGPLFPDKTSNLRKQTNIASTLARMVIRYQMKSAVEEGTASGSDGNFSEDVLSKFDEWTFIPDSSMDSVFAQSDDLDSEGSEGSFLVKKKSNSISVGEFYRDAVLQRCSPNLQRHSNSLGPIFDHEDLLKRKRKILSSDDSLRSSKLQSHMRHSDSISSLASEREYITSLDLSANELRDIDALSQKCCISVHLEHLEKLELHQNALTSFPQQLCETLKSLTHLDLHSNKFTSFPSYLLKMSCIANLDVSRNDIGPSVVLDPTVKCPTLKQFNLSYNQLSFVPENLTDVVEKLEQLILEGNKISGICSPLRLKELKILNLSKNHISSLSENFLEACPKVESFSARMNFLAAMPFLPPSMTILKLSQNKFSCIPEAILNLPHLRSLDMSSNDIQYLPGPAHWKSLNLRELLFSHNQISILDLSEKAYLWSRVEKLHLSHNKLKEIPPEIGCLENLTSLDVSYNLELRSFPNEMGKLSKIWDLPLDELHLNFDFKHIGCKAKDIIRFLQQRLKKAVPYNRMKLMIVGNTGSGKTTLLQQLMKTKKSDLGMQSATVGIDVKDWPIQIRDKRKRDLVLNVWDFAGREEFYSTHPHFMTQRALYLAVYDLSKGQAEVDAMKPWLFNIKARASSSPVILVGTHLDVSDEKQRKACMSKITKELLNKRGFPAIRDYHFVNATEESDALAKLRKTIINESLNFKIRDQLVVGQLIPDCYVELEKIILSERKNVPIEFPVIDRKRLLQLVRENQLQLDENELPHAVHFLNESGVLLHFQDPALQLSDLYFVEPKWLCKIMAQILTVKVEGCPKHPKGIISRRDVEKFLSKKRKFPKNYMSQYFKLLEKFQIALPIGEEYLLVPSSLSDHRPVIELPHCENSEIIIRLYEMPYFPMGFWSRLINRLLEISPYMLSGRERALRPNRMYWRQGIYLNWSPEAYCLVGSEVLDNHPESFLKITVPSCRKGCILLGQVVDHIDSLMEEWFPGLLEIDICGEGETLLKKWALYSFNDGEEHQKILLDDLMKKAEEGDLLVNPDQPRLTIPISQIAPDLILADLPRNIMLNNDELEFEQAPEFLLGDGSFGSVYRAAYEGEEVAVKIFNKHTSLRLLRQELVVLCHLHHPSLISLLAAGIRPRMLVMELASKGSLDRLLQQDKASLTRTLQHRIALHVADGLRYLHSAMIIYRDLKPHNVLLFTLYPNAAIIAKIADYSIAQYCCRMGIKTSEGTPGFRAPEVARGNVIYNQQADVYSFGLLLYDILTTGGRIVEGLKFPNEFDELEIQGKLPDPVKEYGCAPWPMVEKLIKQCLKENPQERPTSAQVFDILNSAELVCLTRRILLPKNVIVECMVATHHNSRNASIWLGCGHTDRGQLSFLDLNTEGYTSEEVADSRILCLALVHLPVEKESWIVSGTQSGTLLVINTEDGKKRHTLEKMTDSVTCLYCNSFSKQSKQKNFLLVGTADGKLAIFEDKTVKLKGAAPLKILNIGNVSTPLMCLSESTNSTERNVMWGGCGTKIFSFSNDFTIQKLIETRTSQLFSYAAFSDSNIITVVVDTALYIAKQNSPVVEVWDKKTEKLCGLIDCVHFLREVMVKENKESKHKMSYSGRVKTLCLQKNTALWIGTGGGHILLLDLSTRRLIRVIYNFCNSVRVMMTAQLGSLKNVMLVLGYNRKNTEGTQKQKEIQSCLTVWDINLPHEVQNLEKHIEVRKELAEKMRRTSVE

[4] = system: Receptor-type tyrosine-protein kinase FLT3 (Homo sapiens), P36888 [K663Q]; assay: Inhibition of FLT3 K663Q mutant (unknown origin) assessed as residual activity at 100 nM by KINOMEscan analysis relative to control
[5] = target: T1, Serine/threonine-protein kinase Nek3 (Homo sapiens) (UniProt P51956); assay: Inhibition of NEK3 (unknown origin) assessed as residual activity at 100 nM by KINOMEscan analysis relative to control
T1 sequence (whole entry): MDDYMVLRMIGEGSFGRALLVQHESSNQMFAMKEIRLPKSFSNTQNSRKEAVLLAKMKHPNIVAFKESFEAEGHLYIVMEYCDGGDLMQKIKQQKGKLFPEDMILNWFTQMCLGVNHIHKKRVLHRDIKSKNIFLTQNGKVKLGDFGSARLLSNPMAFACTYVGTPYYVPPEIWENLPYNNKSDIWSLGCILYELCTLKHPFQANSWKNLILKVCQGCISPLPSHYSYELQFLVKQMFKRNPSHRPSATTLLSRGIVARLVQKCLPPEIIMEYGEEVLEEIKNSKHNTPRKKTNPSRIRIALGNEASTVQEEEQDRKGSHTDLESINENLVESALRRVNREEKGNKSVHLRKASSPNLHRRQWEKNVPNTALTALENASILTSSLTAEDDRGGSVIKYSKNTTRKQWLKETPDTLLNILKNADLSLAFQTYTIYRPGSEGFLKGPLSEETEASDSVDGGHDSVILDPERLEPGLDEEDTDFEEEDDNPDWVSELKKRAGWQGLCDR

[6] = target: RAF proto-oncogene serine/threonine-protein kinase (Homo sapiens) (UniProt P04049); assay: Inhibition of RAF1 (unknown origin) assessed as residual activity at 100 nM by KINOMEscan analysis relative to control
RAF proto-oncogene serine/threonine-protein kinase (Homo sapiens), sequence (P04049 whole entry): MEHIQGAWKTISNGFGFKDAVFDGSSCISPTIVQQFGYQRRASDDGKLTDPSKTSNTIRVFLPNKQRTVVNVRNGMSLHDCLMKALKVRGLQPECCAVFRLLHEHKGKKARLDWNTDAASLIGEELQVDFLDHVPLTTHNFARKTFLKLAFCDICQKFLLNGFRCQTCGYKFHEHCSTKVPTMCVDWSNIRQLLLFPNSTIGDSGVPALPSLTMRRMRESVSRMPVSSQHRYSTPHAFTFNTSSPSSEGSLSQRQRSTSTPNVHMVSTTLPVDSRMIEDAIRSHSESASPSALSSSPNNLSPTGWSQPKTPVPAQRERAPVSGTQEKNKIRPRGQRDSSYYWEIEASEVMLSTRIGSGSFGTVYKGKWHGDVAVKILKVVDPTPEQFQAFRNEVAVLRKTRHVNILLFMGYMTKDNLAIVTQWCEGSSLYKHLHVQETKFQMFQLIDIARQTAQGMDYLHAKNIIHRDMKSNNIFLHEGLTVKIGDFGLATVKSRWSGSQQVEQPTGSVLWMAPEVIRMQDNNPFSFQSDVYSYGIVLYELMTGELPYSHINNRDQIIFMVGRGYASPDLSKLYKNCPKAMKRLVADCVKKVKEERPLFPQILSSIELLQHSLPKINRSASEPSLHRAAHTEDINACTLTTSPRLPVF

[7] = target: Calcium/calmodulin-dependent protein kinase type II subunit delta (Homo sapiens) (UniProt Q13557); assay: Inhibition of CAMK2D (unknown origin) assessed as residual activity at 100 nM by KINOMEscan analysis relative to control
[8] = target: T2, Myosin-IIIb (Homo sapiens) (UniProt Q8WXR4); assay: Inhibition of MYO3B (unknown origin) assessed as residual activity at 100 nM by KINOMEscan analysis relative to control
T2 sequence (whole entry): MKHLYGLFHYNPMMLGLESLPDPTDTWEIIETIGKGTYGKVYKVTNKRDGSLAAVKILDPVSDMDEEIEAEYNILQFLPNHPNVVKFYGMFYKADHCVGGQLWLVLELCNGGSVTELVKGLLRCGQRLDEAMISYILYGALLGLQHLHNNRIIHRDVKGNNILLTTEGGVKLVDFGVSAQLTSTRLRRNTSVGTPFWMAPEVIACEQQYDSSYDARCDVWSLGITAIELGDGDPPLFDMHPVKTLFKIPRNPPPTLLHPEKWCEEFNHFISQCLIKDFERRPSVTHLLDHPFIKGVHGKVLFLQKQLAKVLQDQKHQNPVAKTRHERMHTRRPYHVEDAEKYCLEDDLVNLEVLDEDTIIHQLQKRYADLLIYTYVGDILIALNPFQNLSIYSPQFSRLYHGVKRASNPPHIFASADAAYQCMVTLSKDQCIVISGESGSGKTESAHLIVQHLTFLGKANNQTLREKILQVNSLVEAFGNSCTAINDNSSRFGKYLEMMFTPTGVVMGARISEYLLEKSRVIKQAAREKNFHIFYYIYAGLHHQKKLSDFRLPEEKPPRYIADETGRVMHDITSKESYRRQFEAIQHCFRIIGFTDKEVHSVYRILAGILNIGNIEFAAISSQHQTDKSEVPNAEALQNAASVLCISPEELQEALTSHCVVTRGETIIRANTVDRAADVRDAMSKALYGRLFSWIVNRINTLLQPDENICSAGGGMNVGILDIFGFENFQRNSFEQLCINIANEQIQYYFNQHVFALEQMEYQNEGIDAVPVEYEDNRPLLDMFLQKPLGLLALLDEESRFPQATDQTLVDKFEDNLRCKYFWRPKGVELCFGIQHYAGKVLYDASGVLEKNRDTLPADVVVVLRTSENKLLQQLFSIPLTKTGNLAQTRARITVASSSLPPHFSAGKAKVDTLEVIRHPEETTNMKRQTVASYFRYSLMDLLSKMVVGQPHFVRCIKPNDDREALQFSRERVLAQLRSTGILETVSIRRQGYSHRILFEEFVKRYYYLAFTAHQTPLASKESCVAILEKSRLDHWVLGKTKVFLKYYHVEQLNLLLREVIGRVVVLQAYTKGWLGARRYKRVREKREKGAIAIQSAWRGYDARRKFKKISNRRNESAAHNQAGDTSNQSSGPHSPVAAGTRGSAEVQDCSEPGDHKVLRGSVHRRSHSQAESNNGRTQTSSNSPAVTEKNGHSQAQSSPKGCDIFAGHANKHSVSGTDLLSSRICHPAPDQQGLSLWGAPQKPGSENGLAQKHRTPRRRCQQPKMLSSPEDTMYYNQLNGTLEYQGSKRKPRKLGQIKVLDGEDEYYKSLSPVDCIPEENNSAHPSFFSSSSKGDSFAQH

[9] = target: Serine/threonine-protein kinase NIM1 (Homo sapiens) (UniProt Q8IY84); assay: Inhibition of NIM1 (unknown origin) assessed as residual activity at 100 nM by KINOMEscan analysis relative to control
[10] = target: Tyrosine-protein kinase Blk (Homo sapiens) (UniProt P51451); assay: Inhibition of BLK (unknown origin) assessed as residual activity at 100 nM by KINOMEscan analysis relative to control

Protein kinase C eta type (Homo sapiens), sequence (P24723 whole entry): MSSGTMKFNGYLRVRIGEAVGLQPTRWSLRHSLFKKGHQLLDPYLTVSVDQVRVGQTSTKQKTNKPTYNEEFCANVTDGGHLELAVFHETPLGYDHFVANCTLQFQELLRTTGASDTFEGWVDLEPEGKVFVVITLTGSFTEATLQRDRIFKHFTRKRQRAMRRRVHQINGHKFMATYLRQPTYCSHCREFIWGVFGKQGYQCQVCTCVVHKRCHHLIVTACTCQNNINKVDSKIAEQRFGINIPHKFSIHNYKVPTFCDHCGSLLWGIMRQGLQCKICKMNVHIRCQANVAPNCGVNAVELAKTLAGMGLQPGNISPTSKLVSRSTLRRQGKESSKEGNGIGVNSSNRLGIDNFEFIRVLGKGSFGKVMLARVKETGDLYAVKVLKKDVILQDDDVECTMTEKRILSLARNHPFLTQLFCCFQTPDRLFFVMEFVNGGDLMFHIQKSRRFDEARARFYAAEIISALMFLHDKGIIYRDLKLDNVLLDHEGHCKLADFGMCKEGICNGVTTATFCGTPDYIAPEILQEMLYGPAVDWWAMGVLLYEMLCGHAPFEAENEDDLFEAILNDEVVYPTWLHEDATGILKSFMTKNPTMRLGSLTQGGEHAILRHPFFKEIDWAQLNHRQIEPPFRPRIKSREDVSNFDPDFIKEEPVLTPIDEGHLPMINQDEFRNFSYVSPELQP
Ephrin type-A receptor 4 (Homo sapiens), sequence (P54764 whole entry, the tested form may be a part): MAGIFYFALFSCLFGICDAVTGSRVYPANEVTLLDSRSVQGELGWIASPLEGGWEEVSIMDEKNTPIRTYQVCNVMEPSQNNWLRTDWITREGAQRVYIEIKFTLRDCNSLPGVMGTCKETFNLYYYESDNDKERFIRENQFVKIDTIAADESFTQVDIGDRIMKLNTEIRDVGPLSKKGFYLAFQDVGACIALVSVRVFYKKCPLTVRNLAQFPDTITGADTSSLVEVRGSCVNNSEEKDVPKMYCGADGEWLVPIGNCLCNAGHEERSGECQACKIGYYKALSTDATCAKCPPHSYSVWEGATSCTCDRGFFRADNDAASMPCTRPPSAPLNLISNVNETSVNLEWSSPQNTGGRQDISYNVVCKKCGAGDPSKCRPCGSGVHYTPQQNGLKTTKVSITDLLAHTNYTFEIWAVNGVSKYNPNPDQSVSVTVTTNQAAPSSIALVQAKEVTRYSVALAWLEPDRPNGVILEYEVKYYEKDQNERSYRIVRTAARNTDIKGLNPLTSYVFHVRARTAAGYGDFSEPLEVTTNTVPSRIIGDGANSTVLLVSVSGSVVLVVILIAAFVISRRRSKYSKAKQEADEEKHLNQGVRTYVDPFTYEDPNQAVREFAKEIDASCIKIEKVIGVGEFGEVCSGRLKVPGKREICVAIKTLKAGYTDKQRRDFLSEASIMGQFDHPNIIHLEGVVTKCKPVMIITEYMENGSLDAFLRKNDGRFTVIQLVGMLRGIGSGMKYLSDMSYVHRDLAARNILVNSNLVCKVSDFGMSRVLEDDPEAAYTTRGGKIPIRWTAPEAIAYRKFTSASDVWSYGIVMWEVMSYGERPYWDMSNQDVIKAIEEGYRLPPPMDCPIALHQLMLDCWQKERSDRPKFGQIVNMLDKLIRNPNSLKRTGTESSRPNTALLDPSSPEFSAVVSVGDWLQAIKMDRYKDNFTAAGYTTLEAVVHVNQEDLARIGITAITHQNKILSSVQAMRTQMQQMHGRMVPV

SMILES: COc1cc2ncnc(N[C@H](C)c3cccc4ccccc34)c2cc1OC
- Activity [1]: 90%
- Activity [2]: 86%
- inhibition (Homo sapiens): 102%
- Activity [3]: 92%
- Activity [4]: 90%
- Activity [5]: 97%
- Activity [6]: 85%
- Activity [7]: 70%
- Activity [8]: 98%
- Activity [9]: 78%
- Activity [10]: 77%

From ChEMBL document CHEMBL5678818, “Discovery of potent SOS1 inhibitors that block RAS activation via disruption of the RAS-SOS1 interaction” (Proc Natl Acad Sci U S A, 2019)
